The values that follow are results of earlier work, collected in patent publication US8350024B2, “Sugar derivatives and application of same” (priority 2006, dated 2013).

This series relates to herpes simplex virus type 2. Particulars: conventional drug, comparison value.

Regarding `Nc1nc2c(ncn2COCCO)c(=O)[nH]1` [acyclovir], the selection index result is listed as “about 800”.
